Assay results reported in ChEMBL document CHEMBL1201862, “PubChem BioAssay data set” (2004).
Calls of active or inactive are those of the source.

What was measured:
[1] = system: Streptococcus sp. 'group A'; assay: Streptococcus pyogenes SK(-)GAS viability under kanamycin – luminescence, BacTiterGlo, confirmation, counter-screen for streptokinase expression inhibitor project, dose response (AID 1900); assay type: functional, organism-based
BJ [2] = assay: BJ-TERT fibroblast viability loss – cell-based, RAS-independent, luminescence, dose response (AID 1933); assay type: functional; details: Homo sapiens
cells [3] = assay type: functional, cell-based
Beta-galactosidase [4] = biological target: T1, Beta-galactosidase (Escherichia coli, UniProt Q8VNN2); assay: PubChem AID 485352; assay type: functional
T1 sequence (Q8VNN2 whole entry): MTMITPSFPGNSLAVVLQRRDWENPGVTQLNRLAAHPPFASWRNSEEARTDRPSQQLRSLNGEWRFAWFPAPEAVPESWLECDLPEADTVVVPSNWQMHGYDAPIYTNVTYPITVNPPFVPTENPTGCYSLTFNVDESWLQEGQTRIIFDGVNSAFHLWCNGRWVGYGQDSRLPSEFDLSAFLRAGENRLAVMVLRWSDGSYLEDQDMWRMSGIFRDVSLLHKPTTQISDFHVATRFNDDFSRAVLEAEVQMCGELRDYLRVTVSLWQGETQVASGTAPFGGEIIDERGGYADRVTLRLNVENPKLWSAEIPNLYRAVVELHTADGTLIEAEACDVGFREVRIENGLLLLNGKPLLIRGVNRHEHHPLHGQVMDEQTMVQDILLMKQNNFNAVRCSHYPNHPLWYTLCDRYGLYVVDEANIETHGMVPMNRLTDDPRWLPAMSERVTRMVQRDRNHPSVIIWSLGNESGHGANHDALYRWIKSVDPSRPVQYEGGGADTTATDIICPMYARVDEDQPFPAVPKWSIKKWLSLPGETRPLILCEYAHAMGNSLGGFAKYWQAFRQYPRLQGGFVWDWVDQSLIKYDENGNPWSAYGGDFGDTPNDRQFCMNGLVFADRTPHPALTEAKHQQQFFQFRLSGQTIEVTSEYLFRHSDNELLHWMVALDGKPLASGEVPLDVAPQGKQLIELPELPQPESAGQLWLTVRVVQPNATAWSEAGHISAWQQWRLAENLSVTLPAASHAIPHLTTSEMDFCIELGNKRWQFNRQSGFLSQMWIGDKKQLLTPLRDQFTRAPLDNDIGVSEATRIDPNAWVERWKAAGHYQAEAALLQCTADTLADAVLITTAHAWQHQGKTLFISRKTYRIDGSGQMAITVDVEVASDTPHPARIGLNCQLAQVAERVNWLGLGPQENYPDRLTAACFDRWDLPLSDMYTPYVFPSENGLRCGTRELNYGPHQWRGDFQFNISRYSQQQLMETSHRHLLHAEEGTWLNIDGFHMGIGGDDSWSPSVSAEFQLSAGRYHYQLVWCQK

BJ [5] = assay: cells; assay type: functional, cell-based; details: Homo sapiens
[6] = biological target: T2, Type-1 angiotensin II receptor (Homo sapiens, UniProt P30556); assay: antagonism of angiotensin II type 1 receptor – cell-based, uHTS hits, selectivity assay for APJ receptor antagonist project, dose response (AID 463214); assay type: functional;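 also: antagonist potency against angiotensin II stimulated AT1 response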
T2 sequence (P30556 whole entry): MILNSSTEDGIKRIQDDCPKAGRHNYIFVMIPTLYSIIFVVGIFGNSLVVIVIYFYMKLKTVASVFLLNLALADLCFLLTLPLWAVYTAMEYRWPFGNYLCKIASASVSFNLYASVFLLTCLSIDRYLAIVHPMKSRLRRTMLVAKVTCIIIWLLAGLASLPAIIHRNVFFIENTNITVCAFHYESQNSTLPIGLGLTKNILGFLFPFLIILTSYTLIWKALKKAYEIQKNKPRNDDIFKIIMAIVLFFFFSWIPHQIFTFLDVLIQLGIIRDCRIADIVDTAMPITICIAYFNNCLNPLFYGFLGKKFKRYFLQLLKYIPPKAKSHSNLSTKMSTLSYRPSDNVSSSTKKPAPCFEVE

cells [7] = assay type: functional, cell-based; remark: listed apart in the source
[8] = biological target: T3, Kappa-type opioid receptor (Homo sapiens, UniProt P41145); assay type: functional
T3 sequence (P41145 whole entry): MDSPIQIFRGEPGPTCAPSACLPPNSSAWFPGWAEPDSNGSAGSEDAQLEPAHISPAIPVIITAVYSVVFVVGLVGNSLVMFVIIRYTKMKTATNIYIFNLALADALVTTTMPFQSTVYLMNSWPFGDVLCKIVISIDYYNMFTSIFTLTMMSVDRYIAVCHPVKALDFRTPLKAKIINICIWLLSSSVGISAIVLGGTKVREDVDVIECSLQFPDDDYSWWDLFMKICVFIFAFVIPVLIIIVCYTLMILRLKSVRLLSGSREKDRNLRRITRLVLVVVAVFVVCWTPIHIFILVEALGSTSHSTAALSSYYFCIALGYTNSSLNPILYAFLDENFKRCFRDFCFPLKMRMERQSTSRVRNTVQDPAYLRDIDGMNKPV

Beta-galactosidase [9] = biological target: T1, Beta-galactosidase; assay type: functional
BJ [10] = assay: BJ-TERT-LT-ST fibroblast viability loss – cell-based, RAS-independent, luminescence, dose response (AID 1935); assay type: functional; details: Homo sapiens;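 also: BJ fibroblasts immortalized with TERT plus LT and ST oncogenes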
[11] = biological target: T3, Kappa-type opioid receptor; assay type: functional; remark: listed apart in the source
[12] = DRD fibroblast viability loss – cell-based, non-viral oncogenic, luminescence, dose response (AID 1934); assay type: functional; details: Homo sapiens
Streptococcus = assay: GAS UMAA2166 growth inhibition – luminescence, BacTiterGlo, counter-screen for streptokinase expression inhibitor project, dose response (AID 1915); assay type: functional, organism-based;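 also: potency for reduction of bacterial viability or growth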
Nonstructural protein 1 = Nonstructural protein 1 (Influenza A virus, UniProt Q194T2); assay type: functional, Influenza A virus (A/California/07/2009(H1N1))
Chain of Nonstructural protein 1 (Q194T2 whole entry): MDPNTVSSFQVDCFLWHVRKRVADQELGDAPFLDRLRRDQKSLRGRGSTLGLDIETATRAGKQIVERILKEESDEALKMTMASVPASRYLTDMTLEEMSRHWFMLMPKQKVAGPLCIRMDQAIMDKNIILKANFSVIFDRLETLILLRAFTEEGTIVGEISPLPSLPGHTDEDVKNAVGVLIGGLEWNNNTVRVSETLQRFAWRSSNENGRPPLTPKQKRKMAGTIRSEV

[13] = biological target: T4, Heat shock factor protein 1 (Mus musculus, UniProt P38532); assay: enhancement of HSF1-driven luciferase signal – cell-based, NIH3T3, luminescence, dose retest, confirmation (AID 435004); assay type: functional;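 also: stress induced by proteasome inhibitor MG132 added 30 min after compound; luciferase reporter driven by HSF1 response element in NIH3T3 cells; actives raise luminescence as potentiators of the MG132 stress response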
T4 sequence (P38532 whole entry): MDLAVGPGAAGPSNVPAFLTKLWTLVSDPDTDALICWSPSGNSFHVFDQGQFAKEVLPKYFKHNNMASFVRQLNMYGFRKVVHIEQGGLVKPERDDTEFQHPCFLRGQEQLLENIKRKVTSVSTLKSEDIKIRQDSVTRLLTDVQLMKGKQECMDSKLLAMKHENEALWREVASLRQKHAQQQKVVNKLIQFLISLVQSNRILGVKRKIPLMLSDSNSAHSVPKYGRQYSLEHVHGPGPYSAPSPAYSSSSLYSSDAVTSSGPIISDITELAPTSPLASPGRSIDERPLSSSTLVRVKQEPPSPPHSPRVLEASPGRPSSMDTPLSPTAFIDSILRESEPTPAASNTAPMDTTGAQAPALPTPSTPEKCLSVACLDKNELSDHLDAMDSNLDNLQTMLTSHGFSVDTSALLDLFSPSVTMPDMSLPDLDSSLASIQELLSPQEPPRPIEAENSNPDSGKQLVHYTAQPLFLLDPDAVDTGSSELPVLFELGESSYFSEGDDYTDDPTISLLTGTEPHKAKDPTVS

[14] = biological target: Heat shock protein HSP 90-alpha (Homo sapiens, UniProt P07900); assay type: functional, organism-based
BJ [15] = assay: growth inhibition of engineered Ras-driven BJ cells – cell-based, alamar blue fluorescence, cherrypicked samples, dose response (AID 2631); assay type: functional; details: Homo sapiens;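 also: confirmatory dose-response assay in RAS-dependent BJ fibroblasts engineered with TERT, LT and ST, with cytotoxicity read by fluorescence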
INS1 = assay: INS-1E survival protection against cytokine death – cell-based, luminescence, retest, dose response (AID 449756); assay type: functional; details: Rattus norvegicus;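 also: cell death triggered by IL-1 beta plus TNF-alpha plus IFN-gamma mixture; protective hits raise ATP signal compared with cytokine alone wells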
[16] = biological target: Photoreceptor-specific nuclear receptor (Homo sapiens, UniProt Q9Y5X4); assay type: functional, cell-based;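 also: CHO-S cells with Gal4-NCOR and VP16-NR2E3 two-hybrid luciferase reporter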
Chain of Photoreceptor-specific nuclear receptor (Q9Y5X4 whole entry, the tested form may be a part): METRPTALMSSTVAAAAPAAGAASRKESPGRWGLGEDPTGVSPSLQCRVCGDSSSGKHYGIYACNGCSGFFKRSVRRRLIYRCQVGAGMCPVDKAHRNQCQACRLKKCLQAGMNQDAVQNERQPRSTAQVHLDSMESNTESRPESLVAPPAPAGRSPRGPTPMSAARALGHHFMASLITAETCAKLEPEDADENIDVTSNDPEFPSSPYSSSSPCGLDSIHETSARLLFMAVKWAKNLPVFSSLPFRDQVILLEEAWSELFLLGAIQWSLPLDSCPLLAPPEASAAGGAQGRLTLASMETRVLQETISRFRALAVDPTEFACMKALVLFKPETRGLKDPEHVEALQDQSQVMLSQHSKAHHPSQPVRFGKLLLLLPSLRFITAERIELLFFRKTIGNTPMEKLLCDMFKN

[17] = activation of miR-122 Renilla sensor silencing – cell-based, Huh7 psiCHECK-miR122, Renilla luciferase, cherry-picked, dose response (AID 651956); assay type: functional;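 also: huh7 hepatoma cells stably carrying a psiCHECK-2 miR-122 sensor plasmid; renilla luciferase signal reporting endogenous miR-122 activity after 48 h compound exposure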
[18] = general mammalian cell viability loss – inhibitor set, cherry-pick, set 2, cytotoxicity control for miR-122 modulator project, dose response (AID 720697); assay type: functional, cell-based
[19] = general mammalian cell viability loss – activator set, cherry-pick, cytotoxicity control for miR-122 modulator project, dose response (AID 720690); assay type: functional, cell-based;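 also: HEK293T human cells scored for general mammalian cytotoxicity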
[20] = Late stage assay provider results from the probe development effort to identify selective inhibitors of heat shock protein 90 (HSP90): Absorbance-based cell proliferation assay in SKBR3 cells.; assay type: functional; details: SK-BR-3
[21] = Late stage assay provider results from the probe development effort to identify selective inhibitors of heat shock protein 90 (HSP90): Absorbance-based cell proliferation assay in MCF7 cells.; assay type: functional
[22] = biological target: T5, Replicative DNA helicase DnaB (Mycobacterium tuberculosis, UniProt P9WMR3); assay: DnaB intein splicing inhibitors, dose response, biochemical, cell-free fluorescence (AID 449749); assay type: functional
T5 sequence (P9WMR3 whole entry): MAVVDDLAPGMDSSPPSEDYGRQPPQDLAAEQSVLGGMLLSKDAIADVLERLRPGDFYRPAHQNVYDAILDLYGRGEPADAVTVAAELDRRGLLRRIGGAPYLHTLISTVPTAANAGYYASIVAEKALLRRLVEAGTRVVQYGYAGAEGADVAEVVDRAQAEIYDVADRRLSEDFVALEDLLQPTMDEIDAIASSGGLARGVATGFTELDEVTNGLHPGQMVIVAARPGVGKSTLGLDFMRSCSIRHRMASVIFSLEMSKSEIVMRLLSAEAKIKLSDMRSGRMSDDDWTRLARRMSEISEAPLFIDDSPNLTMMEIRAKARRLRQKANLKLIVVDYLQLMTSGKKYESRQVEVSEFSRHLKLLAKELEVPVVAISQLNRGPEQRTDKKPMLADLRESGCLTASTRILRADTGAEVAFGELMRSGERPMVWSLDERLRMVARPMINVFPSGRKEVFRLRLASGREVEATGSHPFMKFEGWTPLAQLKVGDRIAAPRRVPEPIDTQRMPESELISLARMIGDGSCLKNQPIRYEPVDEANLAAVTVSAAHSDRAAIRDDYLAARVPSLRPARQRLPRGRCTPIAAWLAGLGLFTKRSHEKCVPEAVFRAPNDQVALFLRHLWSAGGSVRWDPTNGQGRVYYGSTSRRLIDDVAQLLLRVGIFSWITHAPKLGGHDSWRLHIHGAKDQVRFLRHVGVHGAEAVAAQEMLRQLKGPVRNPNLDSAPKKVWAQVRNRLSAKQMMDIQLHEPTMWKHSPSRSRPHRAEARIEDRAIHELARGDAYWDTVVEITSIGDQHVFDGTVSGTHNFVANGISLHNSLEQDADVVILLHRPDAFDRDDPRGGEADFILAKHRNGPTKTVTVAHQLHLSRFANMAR

[23] = biological target: T6, Apoptotic protease-activating factor 1 (Homo sapiens, UniProt O14727); assay type: functional
T6 sequence (O14727 whole entry): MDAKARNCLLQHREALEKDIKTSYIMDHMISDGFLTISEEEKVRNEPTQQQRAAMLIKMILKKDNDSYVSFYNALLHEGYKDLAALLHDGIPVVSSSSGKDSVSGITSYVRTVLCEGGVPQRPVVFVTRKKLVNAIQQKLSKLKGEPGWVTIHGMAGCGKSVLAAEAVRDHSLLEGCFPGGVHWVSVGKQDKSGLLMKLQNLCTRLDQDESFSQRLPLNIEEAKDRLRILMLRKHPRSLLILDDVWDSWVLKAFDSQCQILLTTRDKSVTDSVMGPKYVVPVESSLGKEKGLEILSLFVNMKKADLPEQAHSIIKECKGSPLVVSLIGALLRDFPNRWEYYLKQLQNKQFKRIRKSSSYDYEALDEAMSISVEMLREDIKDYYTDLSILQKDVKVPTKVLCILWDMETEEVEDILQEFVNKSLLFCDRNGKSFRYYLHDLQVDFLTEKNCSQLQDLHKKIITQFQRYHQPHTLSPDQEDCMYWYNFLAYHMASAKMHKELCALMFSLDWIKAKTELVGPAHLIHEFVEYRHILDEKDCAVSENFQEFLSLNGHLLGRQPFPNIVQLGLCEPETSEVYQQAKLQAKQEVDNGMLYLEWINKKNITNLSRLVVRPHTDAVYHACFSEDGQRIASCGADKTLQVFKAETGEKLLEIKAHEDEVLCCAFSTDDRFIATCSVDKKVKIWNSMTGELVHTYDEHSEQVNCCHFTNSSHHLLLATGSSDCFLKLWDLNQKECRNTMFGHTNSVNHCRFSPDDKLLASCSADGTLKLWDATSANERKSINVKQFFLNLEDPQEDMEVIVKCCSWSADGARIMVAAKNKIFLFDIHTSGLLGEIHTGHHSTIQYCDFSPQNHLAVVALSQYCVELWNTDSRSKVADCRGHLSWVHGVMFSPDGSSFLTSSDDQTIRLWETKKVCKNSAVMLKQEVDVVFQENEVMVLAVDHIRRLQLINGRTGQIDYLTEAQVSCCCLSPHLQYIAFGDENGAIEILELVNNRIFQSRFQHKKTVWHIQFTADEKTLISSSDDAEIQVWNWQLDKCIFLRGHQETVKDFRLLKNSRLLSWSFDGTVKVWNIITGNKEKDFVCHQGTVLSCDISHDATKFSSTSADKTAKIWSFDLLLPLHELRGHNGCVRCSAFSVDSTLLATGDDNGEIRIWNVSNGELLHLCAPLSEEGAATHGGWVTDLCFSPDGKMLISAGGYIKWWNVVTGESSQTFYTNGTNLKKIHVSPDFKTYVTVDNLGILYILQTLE

Protein RecA = biological target: T7, Protein RecA (Mycobacterium tuberculosis, UniProt P9WHJ3); assay: Fluorescence Cell-Free Homogeneous Dose Retest to Identify Inhibitors of RecA-Intein Splicing Activity. [Related pubchem assays (depositor defined):AID2097, AID2223, AID489010, AID492950]; assay type: functional
T7 sequence (P9WHJ3 whole entry): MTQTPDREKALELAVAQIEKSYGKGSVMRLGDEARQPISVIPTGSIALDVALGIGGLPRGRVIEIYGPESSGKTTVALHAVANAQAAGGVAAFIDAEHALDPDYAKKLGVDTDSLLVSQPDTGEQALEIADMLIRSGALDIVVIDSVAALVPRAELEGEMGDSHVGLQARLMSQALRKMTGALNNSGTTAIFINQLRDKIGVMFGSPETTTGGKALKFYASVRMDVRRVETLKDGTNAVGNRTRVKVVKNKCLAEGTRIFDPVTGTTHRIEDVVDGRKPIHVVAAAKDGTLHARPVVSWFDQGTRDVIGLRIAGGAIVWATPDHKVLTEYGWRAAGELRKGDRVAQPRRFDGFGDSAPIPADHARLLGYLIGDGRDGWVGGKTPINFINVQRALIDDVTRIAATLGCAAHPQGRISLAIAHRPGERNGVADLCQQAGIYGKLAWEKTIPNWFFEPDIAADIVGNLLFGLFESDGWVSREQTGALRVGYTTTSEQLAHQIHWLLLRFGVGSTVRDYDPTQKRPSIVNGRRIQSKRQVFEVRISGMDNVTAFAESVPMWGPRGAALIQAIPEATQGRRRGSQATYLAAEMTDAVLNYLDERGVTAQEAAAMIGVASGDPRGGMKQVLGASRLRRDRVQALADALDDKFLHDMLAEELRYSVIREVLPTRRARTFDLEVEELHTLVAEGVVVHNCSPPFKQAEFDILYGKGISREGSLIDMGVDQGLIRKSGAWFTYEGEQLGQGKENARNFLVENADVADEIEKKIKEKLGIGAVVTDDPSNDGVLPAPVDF

[24] = biological target: Tyrosyl-DNA phosphodiesterase 2 (Homo sapiens, UniProt O95551); assay: potency against TDP2 phosphodiesterase activity – biochemical, epi absorbance, IC50, dose response (AID 743297)
Chain of Tyrosyl-DNA phosphodiesterase 2 (O95551 whole entry): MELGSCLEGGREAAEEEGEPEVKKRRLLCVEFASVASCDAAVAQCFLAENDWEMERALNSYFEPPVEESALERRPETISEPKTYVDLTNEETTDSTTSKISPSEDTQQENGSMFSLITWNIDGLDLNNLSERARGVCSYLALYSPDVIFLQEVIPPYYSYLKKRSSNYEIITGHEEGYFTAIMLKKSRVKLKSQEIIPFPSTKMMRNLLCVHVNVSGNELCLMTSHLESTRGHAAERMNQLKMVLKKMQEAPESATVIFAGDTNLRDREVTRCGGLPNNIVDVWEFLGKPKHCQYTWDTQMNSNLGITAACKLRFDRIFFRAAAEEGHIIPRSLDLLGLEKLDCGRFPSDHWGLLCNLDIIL

Compound: Cc1cccnc1Nc1nc(-c2ccccn2)cs1
- EC50 [1]: 1.1 µM (active)
- EC50 (BJ [2]): 1.46 µM (active)
- EC50 (cells [3]): 3.13 µM (active)
- EC50 (Beta-galactosidase [4]): > 40 µM (inactive)
- EC50 (BJ [5]): 2.18 µM (active)
- IC50 [6]: 2.24 µM (active)
- EC50 (cells [7]): 3.45 µM (active)
- IC50 [8]: 2.9 µM (active)
- EC50 (Beta-galactosidase [9]): > 31.5 µM (inactive)
- EC50 (BJ [10]): 6.23 µM (inconclusive)
- IC50 [11]: > 32 µM
- EC50 [12]: 15.3 µM (inconclusive)
- EC50 (Streptococcus): 6.4 µM (active)
- IC50 (Nonstructural protein 1): 2.83 µM (active)
- EC50 [13]: 3.33 µM (active)
- AC50 [14]: 4.65 µM (active)
- EC50 (BJ [15]): 0.661 µM (active)
- AC50 (INS1): 0.29 µM (active)
- IC50 [16]: 3.9 µM (active)
- AC50 [17]: 43.8 µM (active)
- AC50 [18]: 0.503 µM (active)
- AC50 [19]: 2.3 µM (active)

Compound: O=C1OC(=O)/C(=C\NCCN2CCOCC2)C=C1Br
- IC50 [20]: 61 µM (inactive)
- IC50 [21]: 67 µM (inactive)

Compound: CC(=O)Nc1ccc(S(=O)(=O)NC2=C(N3CCN(c4ccc(F)cc4)CC3)C(=O)c3ccccc3C2=O)cc1
- EC50 [13]: > 260 µM (inactive)
- AC50 [22]: 4.98 µM (active)
- IC50 [23]: 17.4 µM (active)
- EC50 (Protein RecA): 10.4 µM (active)
- AC50 (INS1): 4.96 µM (active)
- IC50 [24]: > 128 µM (inactive)
